Measurements: US20240277631A1, “SMALL MOLECULE DRUG (ELP-004) TO PREVENT BONE LESIONS CAUSED BY MULTIPLE MYELOMA” (West Virginia University Board of Governors on behalf of …, priority 2023, published 2024)
Read-outs that look alike come from different tables or passages of the source.

Key:
[1] = target: T1, CYP2B6 (Homo sapiens, UniProt P20813); assay: stability with recombinant CYP2B6; format: in vitro ADME; details: recombinant CYP2B6, intrinsic clearance, read-out: Recombinant CYP CLINT
T1 sequence (P20813 1-491): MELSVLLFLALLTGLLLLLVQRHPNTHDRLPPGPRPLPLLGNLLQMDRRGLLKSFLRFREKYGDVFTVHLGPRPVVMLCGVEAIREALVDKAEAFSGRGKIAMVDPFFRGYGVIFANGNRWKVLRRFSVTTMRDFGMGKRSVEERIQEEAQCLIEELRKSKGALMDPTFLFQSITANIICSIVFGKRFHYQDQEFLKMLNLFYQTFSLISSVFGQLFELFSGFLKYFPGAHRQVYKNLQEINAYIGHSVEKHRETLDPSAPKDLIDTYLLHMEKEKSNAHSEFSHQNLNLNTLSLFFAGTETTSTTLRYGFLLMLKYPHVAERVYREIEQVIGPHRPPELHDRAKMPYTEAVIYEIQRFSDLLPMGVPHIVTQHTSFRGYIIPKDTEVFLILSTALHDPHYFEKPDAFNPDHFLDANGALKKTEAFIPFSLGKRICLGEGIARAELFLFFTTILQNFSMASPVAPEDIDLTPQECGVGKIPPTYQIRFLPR
Description: (§1) Depicted in table 2 is cytochrome P450 phenotyping and inhibition by ELP-004. The stability of ELP-004 was tested in the presence of recombinant enzymes CYP1A2, CYP2B6, CYP2C8, CYP2C9, CYP2C19, CYP2D6, and CYP3A4. ELP-004 (1 μM) was incubated with recombinant enzymes and NADPH. The amount of ELP-004 remaining at each timepoint was analyzed by LC-MS/MS. Incubations in control recombinant enzymes were also performed to assess non-enzymatic mediated stability. The intrinsic clearance of ELP-004 was determined. […] A decrease in the formation of the metabolite compared to vehicle control is used to calculate an IC50 value. Metabolite peak area ratio response as a percentage of vehicle control is plotted against the test compound concentration.

[2] = system: Jurkat cells; format: cell-based; parameters: dose or concentration left out as unconfirmed; details: human
Description: wherein each X is chlorine, Y is a methyl group, and R is an ethyl group. N-MeDCPA is synthesized as described in U.S. Pat. No. 10,682,320, which is incorporated by reference herein. ELP-004 (N-MeDCPA) precludes metabolizing to two toxic metabolites, N—OH-dichloroaniline and 6-OH-dichloroaniline. In vitro assays for toxicity caused by ELP-004 using Jurkat cells show 50% toxicity at […] and <2% toxicity at […].
ELP-004 (i.e. N-MeDCPA) was specifically developed to preclude metabolizing to two toxic metabolites, N—OH-dichloroaniline and 6-OH-dichloroaniline. In vitro assays for toxicity caused by ELP-004 using Jurkat cells show 50% toxicity at […] and <2% toxicity at […].

[3] = pharmacokinetics in mice, i.v., p.o., s.c.; format: in vivo, female C57B16 mice
Description: ELP-004 was reconstituted in 20% hydroxypropyl-beta-cyclodextrin (HPbCD) and administered to female C57B16 mice (3/timepoint/route of administration) in the fed state. Following i.v. (2 mg/kg) […] from whole blood at 5, 15, and 30 min and at 1, 2, 4, 7, and 24 h. ELP-004 concentration was measured by LC-MS/MS. The data was fit to a two-compartment model and slopes for the a and B elimination were determined.
Depicted in table 1 is pharmacokinetic data of ELP-004 administered via i.v, p.o., and s.c. ELP-004 was reconstituted in 20% hydroxypropyl-beta-cyclodextrin (HPbCD) and administered to female C57B16 mice (3/timepoint/route of administration) in the fed state. Following i.v. (2 mg/kg), s.c. (2 mg/kg), or p.o. (10 mg/kg) administration, plasma was isolated from whole blood at 5, 15, and 30 min and at 1, 2, 4, 7, and 24 h. Plasma from p.o. was not isolated at 5 min. ELP-004 concentration was measured by LC-MS/MS (see below). The limit of quantification was 10 ng/ml and samples below that were not used in the analyses. PK parameters were calculated using Phoenix WinNonlin (Certara, NJ, USA).

[4] = system: Murine BMSMCs; assay: RANKL-induced osteoclastogenesis (TRAP, multinucleation, marker mRNA); format: cell-based; details: RANKL (100 ng/ml)
Description: Murine BMSMCs were grown for up to 21 days in media supplemented with 50 ng/ml of m-CSF and 100 ng/mL RANKL. Each experiment was repeated a minimum of three times. Cells were fixed and stained for Tartrate Resistant Acid Phosphatase (TRAP) activity at days 1, 7, 14, and 21. The number of trap positive osteoclast-like cells (out of 100 cells) were counted for each time point, along with TRAP intensity, as shown in schematic A. In schematic B, the number of nuclei for each cell counted and the average number of nuclei per cell for 100 cells is shown at each time point.

[5] = target: CYP2C9 (Homo sapiens, UniProt P11712); assay: stability with recombinant CYP2C9; format: in vitro ADME
Description: as §1

[6] = system: Murine BMSMCs; assay: LTB4-induced osteoclast fusion (TRAP, multinucleation, marker mRNA); format: cell-based; details: RANKL/LTB4
Description: FIGS. 6A-C show ELP-004 blocking LTB4-induced Osteoclast Fusion. (A-C) Murine BMSMCs were grown for up to 21 days in media supplemented with 50 ng/ml m-CSF, 1 ng/ml RANKL and 50 nM LTB4. Each experiment was repeated a minimum of three times. Cells were fixed and stained for Tartrate Resistant Acid Phosphatase (TRAP) activity at days 1, 7, 14 and 21. In schematic A, the number of TRAP positive osteoclast-like cells (out of 100 cells) were counted for each time point; TRAP intensity was also calculated. In schematic B, at each time point, the number of nuclei for each cell was counted and the average number of nuclei per cell for 100 cells is shown. In schematic C, mRNA expression of osteoclast markers such as TRAP5, VATPASE A3, VATPASE D2 and Calcitonin Receptor (CALCR) were measured at days 7 and 14 for both control and treated cells by RT-PCR. […] The expression patterns of osteoclast markers was unaffected by ELP-004, indicating selective inhibition of specific features of osteoclastogenesis.

CYP2C9, sequence (P11712 whole entry): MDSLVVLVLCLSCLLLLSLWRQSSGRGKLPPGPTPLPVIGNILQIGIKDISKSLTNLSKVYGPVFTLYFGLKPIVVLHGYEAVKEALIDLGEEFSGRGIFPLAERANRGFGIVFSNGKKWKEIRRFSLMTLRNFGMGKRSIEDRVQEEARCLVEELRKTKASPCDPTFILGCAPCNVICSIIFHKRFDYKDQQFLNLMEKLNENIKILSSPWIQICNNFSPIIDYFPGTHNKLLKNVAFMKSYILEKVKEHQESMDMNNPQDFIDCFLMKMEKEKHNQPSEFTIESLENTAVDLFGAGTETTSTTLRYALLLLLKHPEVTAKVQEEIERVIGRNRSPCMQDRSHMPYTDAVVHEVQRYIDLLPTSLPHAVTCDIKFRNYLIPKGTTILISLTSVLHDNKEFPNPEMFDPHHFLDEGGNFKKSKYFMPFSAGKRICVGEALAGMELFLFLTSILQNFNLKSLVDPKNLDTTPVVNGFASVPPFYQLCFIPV

Work on CCC(=O)N(C)c1ccc(Cl)c(Cl)c1 [ELP-004, N-(3,4-dichlorophenyl)-N-methylpropanamide] yielded a microsomal CLint at 1 μM [1] of 0.815 µL/min/mg, a toxicity [2]; 200 of less than 2% and a toxicity [2]; 800 of 50%. For the same compound, the “time until essentially eliminated” value ([3]; administered orally) was no more than 4 h, the C0 ([3]; female, C57B16, mouse, plasma, iv, i.v. 2 mg/kg) was 1220 ng/mL and the TRAP activity [4] was “no significant effect”. For the same compound, the multinucleation [4] was “no significant effect”, the “expression of osteoclast markers” value ([4]; RT-PCR days 7 and 14) was “no significant effect” and the microsomal CLint at 1 μM ([5]; human, recombinant CYP2C9, intrinsic clearance, read-out: Recombinant CYP CLINT) was less than 0.154 µL/min/mg. The “metabolism by recombinant enzyme” value ([5]; recombinant CYP2C9) was “not metabolized”, the “ELP-004 t1/2” value ([5]; recombinant CYP2C9, 1 μM, NADPH) was greater than 3 h and the TRAP activity [6] was “completed abrogated”. The “expression patterns of osteoclast markers” value [6] was “unaffected” and the multinucleation [6] was “severely attenuated”.
